From US11696928B2, “Compounds and use thereof in the expansion of stem cells and/or progenitor cells” (UNIVERSITE DE MONTREAL, priority 2017, dated 2023)

Tests used:
[1] = system: Human CD34+ cord blood (CB) cells; assay: CD34+ activity assessment (7-day expansion of pre-expanded CD34+ cells, flow cytometry); format: cell-based; details: concentration at which compound/vehicle ratio of CD34+ cell number is >= 1.5; 7 days, with 35 nM UM0128171; Table 1
Protocol: Human CD34+ cord blood (CB) cells were isolated from fresh units using RosetteSep™ 0034 pre-enrichment cocktail followed by CD34 positive selection using EasySep Kit™ (StemCell Technologies). The cells were then pre-expanded in bulk, by culturing at 37° C. for 6 days in HSC expansion media consisting of StemSpan ACF (StemCell Technologies) supplemented with 100 ng/mL Stem Cell Factor (SCF, Shenandoah), 100 ng/mL FMS-like Tyrosine Kinase 3 Ligand (FLT3L, Shenandoah), 50 ng/mL Thrombopoietin (TPO, Shenandoah), 2 mM GlutaMAX™ (Invitrogen), 10 μg/mL low density lipoproteins (LDL, StemCell Technologies), 10 μg/mL Ciprofloxacin and 35 nM UM0128171. […] Following the pre-expansion, cells were harvested, aliquoted and frozen until use.
For each activity assessment, CD34+ pre-expanded cells (approximately 2000 per well in a 384-well plate) were cultured in HSC expansion media, in the presence of 35 nM UM0128171. Compounds were serially diluted (1/2) in DMSO (10 dilutions per compound) and added to the cells in order to achieve a 1/1000 final dilution. StemRegenin1 (SR1) and/or Compound 1001 were included in all experiments as controls to monitor assay performance. The plate was incubated at 37° C. for 7 days in static conditions (i.e. no shaking and no addition of media). Flow cytometry analysis was performed at the end of the 7-day expansion. Cells were stained with PE-labeled anti-human CD45RA (BD Biosciences) and APC-labeled anti-human CD34 (BD Biosciences) and analyzed using Intellicyt IQue cytometer equipped with ForeCyt software. Gates were drawn around the populations of interest to obtain cell numbers and relative proportions. The EC1.5 value, which is the concentration at which the compound/vehicle ratio is greater or equal to 1.5, was calculated by plotting the CD34+ cell number against concentrations (log-scale) in a 4-PL curve and fitting the curve using IDBS XLfit (set model 251) in Microsoft Excel.

AhR = molecular target: T1, AhR (Homo sapiens, UniProt P35869); assay: Inhibition of AhR-mediated gene transcription (HEK-XRE 11.1 luciferase reporter, MeBIO induction); format: cell-based; details: HEK-XRE 11.1 cells, MeBIO 0.1 nM, luminescence after 24 hours; Table 1
T1 construct: One of the resultant clones was named HEK-XRE 11.1, and used in the reporter gene assays; endogenous in cells; host or cells: HEK-XRE 11.1 (HEK cells stably carrying the AhR-responsive luciferase reporter X4-4.27 and phRL-CMV)
T1 sequence (P35869 11-848): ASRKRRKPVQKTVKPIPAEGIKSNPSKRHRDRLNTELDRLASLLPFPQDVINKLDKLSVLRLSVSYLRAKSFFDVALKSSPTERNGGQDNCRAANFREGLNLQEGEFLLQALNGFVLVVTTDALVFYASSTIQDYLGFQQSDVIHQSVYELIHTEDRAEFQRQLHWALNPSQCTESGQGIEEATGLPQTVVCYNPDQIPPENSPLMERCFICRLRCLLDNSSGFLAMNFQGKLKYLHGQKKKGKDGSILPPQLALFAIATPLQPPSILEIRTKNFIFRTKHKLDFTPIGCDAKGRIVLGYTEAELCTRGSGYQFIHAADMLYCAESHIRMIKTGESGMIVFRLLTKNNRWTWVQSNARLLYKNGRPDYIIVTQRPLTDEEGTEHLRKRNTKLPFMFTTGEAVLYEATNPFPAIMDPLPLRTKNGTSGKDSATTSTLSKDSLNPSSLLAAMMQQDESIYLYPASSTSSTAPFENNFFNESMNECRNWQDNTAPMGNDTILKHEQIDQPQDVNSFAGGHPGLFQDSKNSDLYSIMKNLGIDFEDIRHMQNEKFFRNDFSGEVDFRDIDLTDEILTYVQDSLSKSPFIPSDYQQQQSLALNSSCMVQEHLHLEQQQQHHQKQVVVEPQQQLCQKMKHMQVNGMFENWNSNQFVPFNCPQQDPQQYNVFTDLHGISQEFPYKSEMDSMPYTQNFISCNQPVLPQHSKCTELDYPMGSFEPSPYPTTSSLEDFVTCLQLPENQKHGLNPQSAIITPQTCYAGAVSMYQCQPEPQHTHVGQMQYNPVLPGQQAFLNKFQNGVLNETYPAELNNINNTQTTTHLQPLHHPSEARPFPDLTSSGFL
Protocol: HEK cells line was transfected with an AhR-responsive firefly luciferase reporter gene X4-4.27 and the stable transfectants generated were again transfected with phRL-CMV (a Renilla luciferase expression vector; Promega) along with pBAsi-hU6 Pur DNA (a plasmid carrying the puromycin-resistant gene; TaKaRa, Shiga, Japan), and maintained in the presence of both hygromycin B and puromycin (2 mg/mL). One of the resultant clones was named HEK-XRE 11.1, and used in the reporter gene assays.
HEK-XRE 11.1 cells were plated in 384-well plates at a density of 25,000 cells in 50 uL volume per well. The induction of ARh pathway was done by addition of MeBIO at 0.1 nM concentration. ARh antagonist compounds were then added to seeded cells in serial dilutions (8 dilutions, 1:[…] down to 5 nM) in duplicate wells. Renilla expression was not used as internal control. On each plate, Compound 1001 and SR1 were added as dose control (8 dilutions, 1:3, 5 mM down to 2.5 nM for SR1 and 2 mM down to 1 nM for compound 1001). Luminescence activity was evaluated after 24 hours culture using Lumi-384-CellTiterGlo-Corning protocol. Dose-response curves were generated using nonlinear regression in Excel.

Structure (SMILES)	EC1.5 [1]	IC50 (AhR)
Nc1c(C(=O)Nc2ccc(F)cc2)sc2ccc(C(F)(F)F)cc12 [Compound 1089]	100 to 1000 nM	< 50 nM
Nc1c(C(=O)Nc2ccccc2)sc2ncc(C3CC3)cc12 [Compound 1091]	100 to 1000 nM	50 to 500 nM
Nc1c(C(=O)Nc2ccc(Oc3ccccc3)cc2)sc2ncc(C(F)(F)F)cc12 [Compound 1092]	100 to 1000 nM	50 to 500 nM
Nc1c(C(=O)Nc2cccc(Cl)c2)sc2ncc(C(F)(F)F)cc12 [Compound 1093]	<100 nM	< 50 nM
Cc1cccc(NC(=O)c2sc3ncc(C(F)(F)F)cc3c2N)c1 [Compound 1094]	<100 nM	< 50 nM
Nc1c(C(=O)Nc2ccc(Cl)c(Cl)c2)sc2ncc(C(F)(F)F)cc12 [Compound 1095]	100 to 1000 nM	50 to 500 nM
Cc1cc(NC(=O)c2sc3ncc(C(F)(F)F)cc3c2N)ccc1Cl [Compound 1096]	1000 to 5000 nM	50 to 500 nM
Nc1c(C(=O)Nc2ccc(Cl)c(O)c2)sc2ncc(C(F)(F)F)cc12 [Compound 1097]	1000 to 5000 nM	> 500 nM
Nc1c(C(=O)Nc2ccc3c(c2)OCO3)sc2ncc(C(F)(F)F)cc12 [Compound 1098]	<100 nM	50 to 500 nM
Nc1c(C(=O)Nc2ccc3c(c2)OCCO3)sc2ncc(C(F)(F)F)cc12 [Compound 1099]	<100 nM	50 to 500 nM
Nc1c(C(=O)Nc2ccsc2)sc2ncc(C(F)(F)F)cc12 [Compound 1100]	<100 nM	< 50 nM
Cc1nc2cc(NC(=O)c3sc4ncc(C(F)(F)F)cc4c3N)ccc2s1 [Compound 1101]	100 to 1000 nM	< 50 nM
Nc1c(C(=O)Nc2ccncn2)sc2ncc(C(F)(F)F)cc12 [Compound 1102]	>5000 nM	50 to 500 nM
Nc1c(C(=O)Nc2ccccc2)sc2nc3c(cc12)CCCC3 [Compound 1104]	100 to 1000 nM	50 to 500 nM
COc1ccc(NC(=O)c2sc3nc4c(cc3c2N)CCCC4)cc1 [Compound 1105]	>5000 nM	50 to 500 nM
Nc1c(C(=O)Nc2ccc(F)cc2)sc2nc3c(cc12)CCCC3 [Compound 1106]	1000 to 5000 nM	50 to 500 nM
Nc1c(C(=O)Nc2ncccn2)sc2ncc(C(F)(F)F)cc12 [Compound 1107]	1000 to 5000 nM	< 50 nM
Nc1c(C(=O)Nc2cncnc2)sc2ncc(C(F)(F)F)cc12 [Compound 1109]	>5000 nM	> 500 nM
Nc1c(C(=O)Nc2ccc3[nH]ncc3c2)sc2ncc(C(F)(F)F)cc12 [Compound 1110]	>5000 nM	50 to 500 nM
Nc1c(C(=O)Nc2ccccc2)sc2nc3c(cc12)CCCCC3 [Compound 1113]	1000 to 5000 nM	50 to 500 nM
Cc1cnc2sc(C(=O)Nc3ccc(F)cc3)c(N)c2c1 [Compound 1115]	<100 nM	< 50 nM
COc1ccc(NC(=O)c2sc3ccc(C(F)(F)F)nc3c2N)cc1 [Compound 1116]	100 to 1000 nM	50 to 500 nM
Nc1c(C(=O)Nc2ccc(F)cc2)sc2ccc(C(F)(F)F)nc12 [Compound 1117]	100 to 1000 nM	< 50 nM

Structure (SMILES)	EC1.5 [1]	IC50 (AhR)
COc1ccc(NC(=O)c2sc3ccc(C)cc3c2N)cc1 [Compound 1119]	100 to 1000 nM	50 to 500 nM
Cc1ccc2sc(C(=O)Nc3ccc(F)cc3)c(N)c2c1 [Compound 1120]	<100 nM	< 50 nM
COc1cc(NC(=O)c2sc3ncc(C(F)(F)F)cc3c2N)ccc1F [Compound 1121]	100 to 1000 nM	50 to 500 nM
CCOc1ccc(NC(=O)c2sc3ncc(C(F)(F)F)cc3c2N)cc1 [Compound 1122]	<100 nM	< 50 nM
NC(=O)c1ccc(NC(=O)c2sc3ncc(C(F)(F)F)cc3c2N)cc1 [Compound 1123]	>5000 nM	50 to 500 nM
CNC(=O)c1ccc(NC(=O)c2sc3ncc(C(F)(F)F)cc3c2N)cc1 [Compound 1124]	100 to 1000 nM	50 to 500 nM
COC(=O)c1ccc(NC(=O)c2sc3ncc(C(F)(F)F)cc3c2N)cc1 [Compound 1125]	100 to 1000 nM	50 to 500 nM
CN(C)c1ccc(NC(=O)c2sc3ncc(C(F)(F)F)cc3c2N)cc1 [Compound 1126]	1000 to 5000 nM	50 to 500 nM
Nc1c(C(=O)Nc2ccc(S(N)(=O)=O)cc2)sc2ncc(C(F)(F)F)cc12 [Compound 1127]	>5000 nM	50 to 500 nM
COc1ccc(NC(=O)c2sc3ccc(C)nc3c2N)cc1 [Compound 1129]	100 to 1000 nM	50 to 500 nM
Cc1ccc2sc(C(=O)Nc3ccc(Cl)cc3)c(N)c2c1 [Compound 1130]	>5000 nM	50 to 500 nM
Cc1ccc(NC(=O)c2sc3ccc(C)cc3c2N)cc1 [Compound 1131]	>5000 nM	50 to 500 nM
Cc1ccc2sc(C(=O)Nc3ccc(Br)cc3)c(N)c2c1 [Compound 1132]	>5000 nM	50 to 500 nM
COc1ccc(NC(=O)c2sc3ncc(C)cc3c2N)cc1Cl [Compound 1135]	<100 nM	< 50 nM
COc1ccc(NC(=O)c2sc3ccc(C(F)(F)F)cc3c2N)cc1Cl [Compound 1136]	>5000 nM	< 50 nM
Cc1cnc2sc(C(=O)Nc3ccc(C(F)(F)F)cc3)c(N)c2c1 [Compound 1137]	<100 nM	< 50 nM
Nc1c(C(=O)Nc2ccc(C(F)(F)F)cc2)sc2ccc(C(F)(F)F)cc12 [Compound 1138]	>5000 nM	50 to 500 nM
Cc1cnc2sc(C(=O)Nc3cccc(Cl)c3)c(N)c2c1 [Compound 1139]	100 to 1000 nM	< 50 nM
Cc1cccc(NC(=O)c2sc3ncc(C)cc3c2N)c1 [Compound 1140]	100 to 1000 nM	50 to 500 nM
Cc1cnc2sc(C(=O)Nc3ccc4c(c3)OCCO4)c(N)c2c1 [Compound 1141]	100 to 1000 nM	50 to 500 nM
CCOc1ccc(NC(=O)c2sc3ncc(C)cc3c2N)cc1 [Compound 1142]	100 to 1000 nM	< 50 nM
CSc1ccc(NC(=O)c2sc3ncc(C)cc3c2N)cc1 [Compound 1143]	<100 nM	< 50 nM
